Experimental data from PubChem BioAssay (NCI).
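Cells were grown in 96-well plates and exposed to each compound for 48 hours at five concentrations; endpoints were interpolated linearly between bracketing concentrations, or set to the highest concentration if not reached. TGI marks complete inhibition of growth.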

Key:
Assay in all cases: growth of human tumour cells (NCI), 48 h
HCC-2998 colon = test system: HCC-2998 colon
HCT-116 colon = test system: HCT-116 colon
SR leukemia = test system: SR leukemia
HCT-15 colon = test system: HCT-15 colon
SF-268 CNS = test system: SF-268 CNS
BT-549 breast = test system: BT-549 breast
OVCAR-3 ovarian = test system: OVCAR-3 ovarian
EKVX NSCLC = test system: EKVX NSCLC
786-0 renal = test system: 786-0 renal
MALME-3M melanoma = test system: MALME-3M melanoma
RPMI-8226 leukemia = test system: RPMI-8226 leukemia
CCRF-CEM leukemia = test system: CCRF-CEM leukemia
A498 renal = test system: A498 renal
SF-295 CNS = test system: SF-295 CNS
MDA-MB-231 breast = test system: MDA-MB-231 breast
SK-OV-3 ovarian = test system: SK-OV-3 ovarian
KM12 colon = test system: KM12 colon
UACC-257 melanoma = test system: UACC-257 melanoma
MOLT-4 leukemia = test system: MOLT-4 leukemia
HOP-18 NSCLC = test system: HOP-18 NSCLC

| Compound | TGI (HCC-2998 colon) | TGI (HCT-116 colon) | TGI (SR leukemia) | TGI (HCT-15 colon) | TGI (SF-268 CNS) | TGI (BT-549 breast) | TGI (OVCAR-3 ovarian) | TGI (EKVX NSCLC) | TGI (786-0 renal) | TGI (MALME-3M melanoma) | TGI (RPMI-8226 leukemia) | TGI (CCRF-CEM leukemia) | TGI (A498 renal) | TGI (SF-295 CNS) | TGI (MDA-MB-231 breast) | TGI (SK-OV-3 ovarian) | TGI (KM12 colon) | TGI (UACC-257 melanoma) | TGI (MOLT-4 leukemia) | TGI (HOP-18 NSCLC) |
| --- | --- | --- | --- | --- | --- | --- | --- | --- | --- | --- | --- | --- | --- | --- | --- | --- | --- | --- | --- | --- |
| CC(=O)OC1C(C)OC(OC2C[C@](O)(C(C)=O)Cc3c(O)c4c(c(O)c32)C(=O)c2ccccc2C4=O)C(F)C1OC(C)=O (stereo partly drawn) | 16.6 µM | 2.84 µM | 0.887 µM | 6.34 µM | 24.6 µM | 33.2 µM | 9.9 µM | 99.2 µM | 2.36 µM | 4.08 µM | 2.14 µM | 1.51 µM | 2.87 µM | 1.47 µM | 10.7 µM | 22.1 µM | > 100 µM | 9.02 µM | 0.112 µM | – |
| CCN(CC)CCCNc1nnc(C)c2[nH]c3ccccc3c12 | 22.2 µM | 69.4 µM | 32.6 µM | > 100 µM | 34.7 µM | 68 µM | 37.7 µM | 63.4 µM | 94 µM | 29.3 µM | > 100 µM | 63.9 µM | 43.1 µM | 62.5 µM | 39.5 µM | 46.8 µM | > 100 µM | 31.8 µM | > 100 µM | – |
| COc1ccc(Sc2ccccc2[N+](=O)[O-])cc1 | 62.1 µM | > 100 µM | > 100 µM | > 100 µM | > 100 µM | – | 58.9 µM | > 100 µM | – | > 100 µM | > 100 µM | > 100 µM | > 100 µM | – | – | > 100 µM | > 100 µM | > 100 µM | > 100 µM | > 100 µM |
| COC(=O)C1=C(C)C(=O)C2(CCCCCC2C(=O)OC)C1 (stereo not drawn) | > 100 µM | > 100 µM | > 100 µM | > 100 µM | > 100 µM | – | – | > 100 µM | > 100 µM | > 100 µM | > 100 µM | > 100 µM | > 100 µM | > 100 µM | – | > 100 µM | > 100 µM | > 100 µM | > 100 µM | > 100 µM |
| CCOP(=O)(OCC)/C(C#N)=C(\C)c1ccco1 | > 10 µM | > 10 µM | > 10 µM | > 10 µM | > 10 µM | > 10 µM | > 10 µM | > 10 µM | > 10 µM | > 10 µM | > 10 µM | > 10 µM | > 10 µM | > 10 µM | > 10 µM | > 10 µM | > 10 µM | > 10 µM | > 10 µM | – |
| CC(C)(C)OC(=O)NCCCCC1NC(=O)[C@@H]2Cc3c([nH]c4ccccc34)C(c3ccccc3)N2C1=O (stereo partly drawn) | 40.3 µM | > 100 µM | 62.8 µM | > 100 µM | > 100 µM | 68.4 µM | 49.2 µM | > 100 µM | 82.3 µM | > 100 µM | > 100 µM | > 100 µM | > 100 µM | 45.4 µM | 94.6 µM | > 100 µM | > 100 µM | > 100 µM | 60.2 µM | – |
| Cc1c(Cl)cc(C(C)(C)C)c(O)c1Cc1c(C)c(Cl)cc(C(C)(C)C)c1O | 3.33 µM | 3.47 µM | 5.58 µM | 13.6 µM | 6.89 µM | 9.79 µM | 2.22 µM | 6.41 µM | 4.57 µM | 1.94 µM | 0.707 µM | 1.54 µM | 3.84 µM | 7.54 µM | 3.49 µM | 10 µM | 5.76 µM | 6.29 µM | 3.34 µM | – |
| CCOC(=O)c1ccc(-c2cccs2)[nH]1 | > 100 µM | > 100 µM | > 100 µM | > 31.6 µM | > 100 µM | > 100 µM | > 100 µM | > 100 µM | > 100 µM | > 100 µM | > 100 µM | > 100 µM | > 100 µM | > 100 µM | > 100 µM | > 100 µM | > 100 µM | > 100 µM | > 100 µM | – |
| O=C1Cc2c(-c3ccccc3)cc(-c3ccc(Cl)cc3)nc2-c2ccccc2N1 | 33.4 µM | 11.9 µM | > 100 µM | > 55 µM | 20 µM | 40.2 µM | 22.8 µM | > 43.6 µM | 3.51 µM | > 34.4 µM | > 100 µM | > 53.4 µM | 3.67 µM | 23.7 µM | 19.2 µM | 7.85 µM | 96.1 µM | > 58.2 µM | > 84.8 µM | – |
| COc1ccc(-c2cc(=O)c3cc(OC)c(OC)cc3[nH]2)cc1OC | > 100 µM | > 100 µM | > 100 µM | > 100 µM | > 100 µM | > 100 µM | > 100 µM | > 100 µM | > 100 µM | > 100 µM | > 100 µM | > 100 µM | > 100 µM | > 100 µM | > 100 µM | > 100 µM | > 100 µM | > 100 µM | > 100 µM | – |
| Nc1cc(O)c2cc(N=Nc3ccc(N=Nc4ccc(N=Nc5ccc6cc(S(=O)(=O)O)cc(S(=O)(=O)O)c6c5)c5ccccc45)c4cc(S(=O)(=O)O)ccc34)c(S(=O)(=O)O)cc2c1 | > 100 µM | > 100 µM | – | > 100 µM | > 100 µM | – | > 100 µM | > 100 µM | – | > 100 µM | > 100 µM | > 100 µM | > 100 µM | > 100 µM | – | > 100 µM | > 100 µM | > 100 µM | > 100 µM | > 100 µM |
| CN1Cc2c(ccc3c2OCO3)[C@@H]2[C@H](O)Cc3cc4c(cc3[C@@H]21)OCO4 | 4.49 µM | > 44.7 µM | > 100 µM | 6.74 µM | > 26.5 µM | > 100 µM | > 100 µM | > 100 µM | > 75 µM | > 100 µM | > 37.4 µM | > 29.2 µM | 6.07 µM | 21.6 µM | 24.6 µM | > 29.9 µM | 12.4 µM | > 100 µM | > 57.1 µM | – |
| COc1ccc(N=C(SSC(=Nc2ccc(OC)cc2)c2ccc([N+](=O)[O-])o2)c2ccc([N+](=O)[O-])o2)cc1 | 3.26 µM | 3.49 µM | > 21.7 µM | 2.03 µM | 5.4 µM | 3.22 µM | 2.6 µM | 3.47 µM | 4.18 µM | 4.14 µM | > 100 µM | > 22.5 µM | 25.8 µM | 6.14 µM | 7.33 µM | 11.1 µM | 2.79 µM | > 19.9 µM | > 31.3 µM | – |
| Cc1ccc(C)c(C(=O)CC2OC(O)C(Cl)C2Cl)c1 (stereo not drawn) | > 100 µM | > 100 µM | > 100 µM | > 100 µM | > 100 µM | – | > 100 µM | > 100 µM | – | > 100 µM | > 100 µM | > 100 µM | > 100 µM | > 100 µM | – | > 100 µM | > 100 µM | > 100 µM | > 100 µM | > 100 µM |
| CCOC(=O)c1c(SCCN(CC)CC)n(-c2ccccc2)c(=S)n(-c2ccccc2)c1=O | 3.46 µM | 8.13 µM | 2.6 µM | 7.28 µM | 9.9 µM | 18.6 µM | 3.36 µM | 24.8 µM | 3.17 µM | 3.06 µM | 3.87 µM | 3.34 µM | 29 µM | > 100 µM | 9.04 µM | 40.2 µM | 28.5 µM | 5.46 µM | 3.33 µM | – |
| O=C(CCc1ccccc1)NCCc1ccc(O)c(O)c1 | > 100 µM | > 66.7 µM | > 77.3 µM | > 100 µM | > 100 µM | > 49.8 µM | > 89 µM | > 100 µM | > 82.2 µM | > 100 µM | 59.4 µM | 27.1 µM | > 100 µM | > 94.9 µM | > 72.3 µM | > 100 µM | > 94.4 µM | > 100 µM | > 89.4 µM | – |
| Cn1c(=O)c(C#N)c(O)c2cc3ccccc3nc21 | > 100 µM | > 100 µM | > 100 µM | > 100 µM | > 100 µM | – | – | > 100 µM | – | > 100 µM | > 100 µM | > 100 µM | – | > 100 µM | – | > 100 µM | > 100 µM | > 100 µM | > 100 µM | > 100 µM |
| CCCCCCCCCCCC1=C(O)C(=O)C=C(O)C1=O | 33 µM | 30.1 µM | – | 49.3 µM | 18 µM | – | 14.4 µM | 15.6 µM | – | 16.5 µM | 19.3 µM | 36.7 µM | 20.9 µM | 17.4 µM | – | 21.2 µM | 31.6 µM | 16.7 µM | 44.1 µM | 14.6 µM |
| N#Cc1c(N)n(-c2nc3ccccc3s2)c(=O)c2cc([N+](=O)[O-])ccc12 | 41.2 µM | > 41.9 µM | 56.2 µM | 19.4 µM | > 49.6 µM | > 62.7 µM | 51.9 µM | > 56.3 µM | > 66.3 µM | 36.7 µM | > 100 µM | 18.9 µM | 98.1 µM | > 64.9 µM | 50.5 µM | 98.1 µM | > 51.3 µM | 69.3 µM | 19.9 µM | – |
| O=C1c2sccc2C(=O)c2c(CO)csc21 | 13.7 µM | 9.47 µM | > 73.2 µM | 11.2 µM | 30.7 µM | 12 µM | 6.3 µM | 26.6 µM | 18.5 µM | 6.71 µM | > 100 µM | > 51.6 µM | 31.8 µM | 8.04 µM | 50.1 µM | 28.2 µM | 31.5 µM | 5.24 µM | > 52.9 µM | – |
